Reference: patent publication US20220233512A1, “INHIBITING AN IMMUNE RESPONSE MEDIATED BY ONE OR MORE OF TLR2, RAGE, CCR5, CXCR4 AND CD4” (priority 2020, published 2022)

Biological target: T1, mu opiate receptor (MOR) (Rattus norvegicus, UniProt P33535)
T1 construct: from tissue; host or cells: striatum (membrane preparation)
Assay: MOR agonist activity using [35S]GTPgS binding assay in striatal membranes
Format: biochemical
Method: To assess the mu opiate receptor (MOR) agonist activity of positive compounds from the FLNA screening, compounds were tested in a [^35S]GTPgS binding assay using striatal membranes. […] This assay measures a functional consequence of receptor occupancy at one of the earliest receptor-mediated events. The assay permits for traditional pharmacological parameters of potency, efficacy and antagonist affinity, with the advantage that agonist measures are not subjected to amplification or other modulation that may occur when analyzing parameters further downstream of the receptor.
Thus, striatal tissue was homogenized in 10 volumes of ice cold 25 mM HEPES buffer, pH 7.4, which contained 1 mM EGTA, 100 mM sucrose, 50 mg/ml leupeptin, 0.04 mM PMSF, 2 mg/ml soybean trypsin inhibitor and 0.2% 2-mercaptoethanol. The homogenates were centrifuged at 800×g for 5 minutes and the supernatants were centrifuged at 49,000×g for 20 minutes. The resulting pellets were suspended in 10 volume of reaction buffer, which contained 25 mM HEPES, pH 7.5, 100 mM NaCl, 50 mg/ml leupeptin, 2 mg/ml soybean trypsin inhibitor, 0.04 mM PMSF and 0.02% […].
The resultant striatal membrane preparation (200 mg) was admixed and maintained (incubated) at 30° C. for 5 minutes in reaction buffer as above that additionally contained 1 mM MgCl2 and 0.5 nM [^35S]GTPgS (0.1 mCi/assay, PerkinElmer Life and Analytical Sciences) in a total volume of 250 ml and continued for 5 minutes in the absence or presence of 0.1-10 mM of an assayed compound of interest. The reaction was terminated by dilution with 750 ml of ice-cold reaction buffer that contained 20 mM MgCl2 and 1 mM EGTA and immediate centrifugation at 16,000×g for 5 minutes.
The resulting pellet was solubilized by sonicating for 10 seconds in 0.5 ml of immunoprecipitation buffer containing 0.5% digitonin, 0.2% sodium cholate and 0.5% NP-40. Normal rabbit serum (1 ml) was added to 1 ml of lysate and incubated at 25° C. for 30 minutes. Nonspecific immune complexes were removed by incubation with 25 ml of protein A/G-conjugated agarose beads at 25° C. for 30 minutes followed by centrifugation at 5,000×g at 4° C. for 5 minutes. The supernatant was divided and separately incubated at 25° C. for 30 minutes with antibodies raised against Gao proteins (1:1,000 dilutions).
The immunocomplexes so formed were collected by incubation at 25° C. for 30 minutes with 40 ml of agarose-conjugated protein A/G beads and centrifugation at 5,000×g at 4° C. for 5 minutes. The pellet was washed and suspended in buffer containing 50 mM Tris-HCl, pH 8.0, and 1% NP-40. The radioactivity in the suspension was determined by liquid scintillation spectrometry. […] DAMGO (1 or 10 mM) was used as a positive control.

[1] = 0.1 μM compound as agonist, Series C-1 table
[2] = 1 μM compound as agonist, Series C-1 table
[3] = 0.1 μM compound as agonist, Series C-2 table
[4] = 1 μM compound as agonist, Series C-2 table

T1 sequence (P33535 whole entry): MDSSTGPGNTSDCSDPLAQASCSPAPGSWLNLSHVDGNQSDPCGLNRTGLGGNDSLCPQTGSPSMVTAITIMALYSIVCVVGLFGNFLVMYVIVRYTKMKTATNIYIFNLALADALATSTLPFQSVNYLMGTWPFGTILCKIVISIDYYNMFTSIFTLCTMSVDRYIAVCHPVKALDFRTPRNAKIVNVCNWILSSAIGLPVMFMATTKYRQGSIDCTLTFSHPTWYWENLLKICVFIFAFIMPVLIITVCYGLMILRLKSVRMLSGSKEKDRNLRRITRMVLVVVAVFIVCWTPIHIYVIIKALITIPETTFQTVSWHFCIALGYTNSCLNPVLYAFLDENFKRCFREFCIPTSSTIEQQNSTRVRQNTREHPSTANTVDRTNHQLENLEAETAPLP

SMILES	MOR agonist activity ([35S]GTPgS binding to Gao) [1] [%]	MOR agonist activity ([35S]GTPgS binding to Gao) (1 μM + BFNA, Series C-1 table) [%]	MOR agonist activity ([35S]GTPgS binding to Gao) [2] [%]	MOR agonist activity ([35S]GTPgS binding to Gao) [3] [%]	MOR agonist activity ([35S]GTPgS binding to Gao) (1 μM + BFNA, Series C-2 table) [%]	MOR agonist activity ([35S]GTPgS binding to Gao) [4] [%]
CC(=O)c1ccc(C(=O)N2CCC3(CC2)OCCN3C(=O)c2ccc(C(C)=O)cc2)cc1 [Compound C0054]	68.2	43.5	127.0	–	–	–
CC(=O)c1ccc(S(=O)(=O)N2CCC3(CC2)OCCN3S(C)(=O)=O)cc1 [Compound C0056]	–	–	–	98.6	86.3	193.4
CC(=O)c1ccc(S(=O)(=O)N2CCC3(CC2)NCCS3)cc1 [Compound C0060]	–	–	–	166.5	143.9	218.9
COc1cc(S(=O)(=O)N2CCC3(CC2)OCCN3S(=O)(=O)c2cc(OC)c(OC)c(OC)c2)cc(OC)c1OC [Compound C0062]	127.8	59.8	310.5	–	–	–
CC(=O)c1ccc(S(=O)(=O)N2CCC3(CC2)NC(=O)CN3S(=O)(=O)c2ccc(C(C)=O)cc2)cc1 [Compound C0064]	213.8	38.1	349.6	–	–	–
CC(=O)c1ccc(S(=O)(=O)N2CCC3(CC2)OC(CN(C)C)CN3S(=O)(=O)c2ccc(C(C)=O)cc2)cc1 (stereo not drawn) [Compound C0065]	198.3	47.7	279.5	–	–	–
O=S(=O)(c1ccc(Cl)cc1)N1CCC2(CC1)OCCN2S(=O)(=O)c1ccc(Cl)cc1 [Compound C0067]	142.7	33.5	179.0	–	–	–
O=S(=O)(c1ccc(Br)cc1C(F)(F)F)N1CCC2(CC1)OCCN2S(=O)(=O)c1ccc(Br)cc1C(F)(F)F [Compound C0068]	107.2	165.9	263.1	–	–	–
O=S(=O)(c1ccc(Br)cc1Br)N1CCC2(CC1)OCCN2S(=O)(=O)c1ccc(Br)cc1Br [Compound C0070]	165.6	114.2	210.8	–	–	–
O=S(=O)(c1ccc(C(F)(F)F)cc1Br)N1CCC2(CC1)OCCN2S(=O)(=O)c1ccc(C(F)(F)F)cc1Br [Compound C0071]	276.3	177.1	355.3	–	–	–
O=S(=O)(c1ccc(F)c(F)c1)N1CCC2(CC1)OCCN2S(=O)(=O)c1ccc(F)c(F)c1 [Compound C0072]	172.7	67.1	259.1	–	–	–
O=S(=O)(c1ccc(Br)c(C(F)(F)F)c1)N1CCC2(CC1)OCCN2S(=O)(=O)c1ccc(Br)c(C(F)(F)F)c1 [Compound C0077]	192.7	136.7	265.4	–	–	–
O=S(=O)(c1ccc(Br)cc1F)N1CCC2(CC1)OCCN2S(=O)(=O)c1ccc(Br)cc1F [Compound C0078]	138.1	170.7	236.6	–	–	–
CC(=O)c1ccc(S(=O)(=O)N2CCC3(CC2)OCC(CCCCN(C)C)N3S(=O)(=O)c2ccc(C(C)=O)cc2)cc1 (stereo not drawn) [Compound C0080]	187.9	167.1	205.4	–	–	–
CC(=O)c1ccc(S(=O)(=O)N2CCC3(CC2)NCC(=O)N3Cc2ccccc2)cc1 [Compound C0082M]	228.1	97.6	338.4	–	–	–
CC(=O)c1ccc(S(=O)(=O)N2CCC3(CC2)NC(=O)C(Cc2cnc[nH]2)N3S(=O)(=O)c2ccc(C(C)=O)cc2)cc1 (stereo not drawn) [Compound C0084M]	163.1	133.2	255.5	–	–	–
CC(=O)c1ccc(S(=O)(=O)N2CCC3(CC2)NC(=O)CN3Cc2ccccc2)cc1 [Compound C0085M]	211.6	43.7	246.2	–	–	–
CC(=O)c1ccc(S(=O)(=O)N2CC(=O)NC23CCNCC3)cc1 [Compound C0086M]	–	–	–	206.8	152.3	265.3
CC(=O)c1ccc(S(=O)(=O)N2CCC3(CC2)NC(=O)CO3)cc1 [Compound C0087M]	–	–	–	262.8	142.5	329.6
COc1ccc(S(=O)(=O)N2CCOC23CCN(C)CC3)cc1 [Compound C0088M]	–	–	–	276.3	177.1	355.3
CCN1CCC2(CC1)OCCN2S(=O)(=O)c1ccc(OC)cc1 [Compound C0089M]	–	–	–	234.5	81.9	295.3
COc1ccc(S(=O)(=O)N2CCOC23CCN(CC2CC2)CC3)cc1 [Compound C0090M]	–	–	–	237.0	41.0	341.0
C=CCN1CCC2(CC1)OCCN2S(=O)(=O)c1ccc(OC)cc1 [Compound C0091M]	–	–	–	207.9	80.8	274.4
CC(=O)c1ccc(S(=O)(=O)N2CCOC23CCN(C)CC3)cc1 [Compound C0093M]	–	–	–	140.0	44.0	211.8
CCN1CCC2(CC1)OCCN2S(=O)(=O)c1ccc(C(C)=O)cc1 [Compound C0094M]	–	–	–	172.5	115.3	263.5
CC(=O)c1ccc(S(=O)(=O)N2CCOC23CCN(CC2CC2)CC3)cc1 [Compound C0095M]	–	–	–	189.1	107.7	224.6
C=CCN1CCC2(CC1)OCCN2S(=O)(=O)c1ccc(C(C)=O)cc1 [Compound C0096M]	–	–	–	186.4	127.1	328.9
